Blank lines part the entries; values can stand above or below the compound they belong to.
Assays:
[1] = biological target: RORγ Ligand binding domain (RORγ-LBD, aa 238-497, NP_001001523) (Homo sapiens (Human), UniProt P51449); test: ROR γ GAI4 Reporter Gene Assay (Mammalian one-hybrid, M1H) in 293T cells; assay type: cell-based
From the text: ROR γ GAI4 Reporter Gene Assay
A Mammalian one-hybrid system is used to perform a cell-based functional transactivation assay for detecting RORγ activity modulators.
The Mammalian-1-Hybrid is derived from the Mammalian-2-Hybrid setup. Whereas in the latter, the binding partners are defined in their role as interaction, transactivation and DNA-binding components, the Mammalian-1-Hybrid makes use of the fact that all mammalian cell types express a set of Nuclear Receptors and their associated cofactors. […] A Gal4 minimal promoter driven luciferase construct (pFR-Luc from Stratagene, containing a synthetic promoter with five tandem repeats of the yeast GAL4 binding sites controlling expression of the Photinus pyralis luciferase gene) is used as reporter. The Gal4-DBD-NR-LBD fusion protein by itself cannot initiate transcription and is dependent on the presence of cofactors present in the cellular system used.
In order to rule out cytotoxic and unspecific transcriptional compound effects a transfection with a firefly luciferase driven by the constitutive CMV promoter is performed in parallel.
After transfection 18 μl complete MEM medium containing 3% charcoal-dextran treated FBS is added as well as 4 μl test compounds (DMSO stocks prediluted in OptiMem (Invitrogen)) followed by incubation for 16-24 h at 37° C., 5% CO2 and 90% rH.
Firefly luciferase activity is measured using the Promega ONE-Glo™ Luciferase Assay System.

[2] = biological target: human RORγ ligand binding domain (GST-hRORγ-LBD) (Homo sapiens (Human), UniProt P51449); test: TR-FRET assay (biochemical cofactor interaction assay, GST-hRORγ-LBD / TRAP220 peptide)
human RORγ ligand binding domain (GST-hRORγ-LBD), sequence (P51449 269-508): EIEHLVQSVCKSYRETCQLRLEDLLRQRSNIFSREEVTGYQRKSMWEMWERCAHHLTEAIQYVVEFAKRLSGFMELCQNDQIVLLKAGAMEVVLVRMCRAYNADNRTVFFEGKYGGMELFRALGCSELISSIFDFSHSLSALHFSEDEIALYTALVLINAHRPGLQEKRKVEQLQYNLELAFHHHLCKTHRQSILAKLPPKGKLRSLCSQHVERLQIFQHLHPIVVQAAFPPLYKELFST
From the text: RORγ is an orphan member of the nuclear receptor (NR) family displaying constitutive activity. The activity of nuclear receptors can be modulated by ligand-induced cofactor protein interactions. For example, agonist binding leads to recruitment of coactivator protein, and antagonist binding either blocks coactivator interaction or facilitates the recruitment of corepressors. […] The conformational change induced by ligand binding influences interactions with LXXLL motif peptides.
RORγ (t) is a thymus-specific isoform of RORγ which is widely expressed. It shares the same ligand binding domain (LBD) sequence with RORγ. Thus, a screen using the LBD will yield antagonists targeting both RORγ and RORγt.
In order to identify compounds which block activity of the human nuclear receptor Retinoid-related Orphan Receptor gamma (RORγ) a biochemical cofactor interaction assay based on the TR-FRET principle is performed. […] The ligand-binding domain (LBD) of RORγ is expressed as fusion protein with GST in […] cells using the vector pDEST15. Cells are lysed by lysozyme-treatment and sonication, and the fusion proteins purified over glutathione sepharose (Pharmacia) according to the manufacturers instructions. The strong constitutive interaction is disrupted upon binding of functional antagonists. The strength of the interaction is monitored by TR-FRET between streptavidine APC interacting with the biotinylated peptide and Europium-labelled Anti-GST.

RORγ Ligand binding domain (RORγ-LBD, aa 238-497, NP_001001523), sequence (P51449 259-518): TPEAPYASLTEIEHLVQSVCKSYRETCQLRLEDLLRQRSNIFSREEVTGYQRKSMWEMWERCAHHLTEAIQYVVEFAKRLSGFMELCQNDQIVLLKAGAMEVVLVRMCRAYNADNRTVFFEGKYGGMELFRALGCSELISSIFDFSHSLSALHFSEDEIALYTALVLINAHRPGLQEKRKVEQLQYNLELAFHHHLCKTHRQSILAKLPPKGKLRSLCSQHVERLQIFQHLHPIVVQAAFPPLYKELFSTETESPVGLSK

SMILES: Cc1cccc(CN2CCn3nnnc3C2c2ccc(F)cc2)c1 (racemic) [Compound 93, 8-(4-Fluoro-phenyl)-7-(3-methyl-benzyl)-5,6,7,8-tetrahydro-tetrazolo[1,5-a]pyrazine]
IC50 [1]: 9.9 to 40 µM | IC50 [2]: 0.01 to 0.99 µM

SMILES: CCOc1ccc(C2c3nnnn3CCN2Cc2ccc(F)cc2)cc1 (stereo not shown) [Compound 134, 8-(4-Ethoxy-phenyl)-7-(4-fluoro-benzyl)-5,6,7,8-tetrahydro-tetrazolo[1,5-a]pyrazine]
IC50 [1]: 9.9 to 40 µM | IC50 [2]: 0.99 to 9.9 µM

SMILES: CC(C)c1nn(-c2ccccc2)cc1C1c2nnnn2CCN1Cc1cnn(Cc2ccccc2)c1 (stereo not shown) [Compound 161, 7-(1-Benzyl-1H-pyrazol-4-ylmethyl)-8-(3-isopropyl-1-phenyl-1H-pyrazol-4-yl)-5,6,7,8-tetrahydro-tetrazolo[1,5-a]pyrazine]
IC50 [1]: 0.99 to 9.9 µM | IC50 [2]: 0.99 to 9.9 µM

IC50 [1]: 0.99 to 9.9 µM | IC50 [2]: 9.9 to 40 µM
SMILES: CC(C)c1nn(-c2ccccc2)cc1C1c2nnnn2CCN1Cc1cnn2ccccc12 (stereo not shown) [Compound 154, 8-(3-Isopropyl-1-phenyl-1H-pyrazol-4-yl)-7-pyrazolo[1,5-a]pyridin-3-ylmethyl-5,6,7,8-tetrahydro-tetrazolo[1,5-a]pyrazine]

SMILES: Cc1cccc(C2c3nnnn3CCN2Cc2ccccc2)c1 (stereo not shown) [Compound 100, 7-Benzyl-8-m-tolyl-5,6,7,8-tetrahydro-tetrazolo[1,5-a]pyrazine]
IC50 [1]: 9.9 to 40 µM | IC50 [2]: 0.01 to 0.99 µM

SMILES: COc1ccc(OC)c(C2c3nnnn3CCN2Cc2ccc(F)cc2)c1 (stereo not shown) [Compound 128, 8-(2,5-Dimethoxy-phenyl)-7-(4-fluoro-benzyl)-5,6,7,8-tetrahydro-tetrazolo[1,5-a]pyrazine]
IC50 [1]: 9.9 to 40 µM | IC50 [2]: 0.99 to 9.9 µM

SMILES: COc1ccc(OC)c(CN2CCn3nnnc3C2c2cn(-c3ccccc3)nc2C(C)C)c1 (stereo not shown) [Compound 54, 7-(2,5-Dimethoxy-benzyl)-8-(3-isopropyl-1-phenyl-1H-pyrazol-4-yl)-5,6,7,8-tetrahydro-tetrazolo[1,5-a]pyrazine]
IC50 [1]: 9.9 to 40 µM | IC50 [2]: 9.9 to 40 µM

SMILES: Cc1cccc(CN2CCn3nnnc3C2c2ccc(F)cc2)c1 (single isomer, unassigned) [Compound 93-a, 8-(4-Fluoro-phenyl)-7-(3-methyl-benzyl)-5,6,7,8-tetrahydro-tetrazolo[1,5-a]pyrazine]
IC50 [1]: 0.99 to 9.9 µM | IC50 [2]: 0.01 to 0.99 µM

SMILES: CC(C)(C)c1nn(Cc2ccccc2)cc1C1c2nnnn2CCN1Cc1cccs1 (stereo not shown) [Compound 160, 8-(1-Benzyl-3-tert-butyl-1H-pyrazol-4-yl)-7-thiophen-2-ylmethyl-5,6,7,8-tetrahydro-tetrazolo[1,5-a]pyrazine]
IC50 [1]: 0.99 to 9.9 µM | IC50 [2]: 9.9 to 40 µM

SMILES: CC(C)c1nn(-c2ccccc2)cc1C1c2nnnn2CCN1Cc1cccs1 (single isomer, unassigned) [Compound 61-b, 8-(3-Isopropyl-1-phenyl-1H-pyrazol-4-yl)-7-thiophen-2-ylmethyl-5,6,7,8-tetrahydro-tetrazolo[1,5-a]pyrazine]
IC50 [1]: 0.99 to 9.9 µM | IC50 [2]: 9.9 to 40 µM

SMILES: Fc1cc(F)cc(C2c3nnnn3CCN2Cc2ccccc2)c1 (stereo not shown) [Compound 101, 7-Benzyl-8-(3,5-difluoro-phenyl)-5,6,7,8-tetrahydro-tetrazolo[1,5-a]pyrazine]
IC50 [1]: 9.9 to 40 µM | IC50 [2]: 0.01 to 0.99 µM

SMILES: COc1ccc(OC)c(CN2CCn3nnnc3C2c2cccc(F)c2F)c1 (stereo not shown) [Compound 71, 8-(2,3-Difluoro-phenyl)-7-(2,5-dimethoxy-benzyl)-5,6,7,8-tetrahydro-tetrazolo[1,5-a]pyrazine]
IC50 [1]: 9.9 to 40 µM | IC50 [2]: 9.9 to 40 µM

SMILES: Cc1ccc(CN2CCn3nnnc3C2c2ccc(OC(C)C)cc2)o1 (stereo not shown) [Compound 142, 8-(4-Isopropoxy-phenyl)-7-(5-methyl-furan-2-ylmethyl)-5,6,7,8-tetrahydro-tetrazolo[1,5-a]pyrazine]
IC50 [1]: 9.9 to 40 µM | IC50 [2]: 9.9 to 40 µM

SMILES: Fc1ccc(C2c3nnnn3CCN2Cc2cccs2)cc1 (stereo not shown) [Compound 125, 8-(4-Fluoro-phenyl)-7-thiophen-2-ylmethyl-5,6,7,8-tetrahydro-tetrazolo[1,5-a]pyrazine]
IC50 [1]: 9.9 to 40 µM | IC50 [2]: 0.99 to 9.9 µM

SMILES: CC(C)c1nn(-c2ccccc2)cc1C1c2nnnn2CCN1Cc1cccs1 (single isomer, unassigned) [Compound 61-a, 8-(3-Isopropyl-1-phenyl-1H-pyrazol-4-yl)-7-thiophen-2-ylmethyl-5,6,7,8-tetrahydro-tetrazolo[1,5-a]pyrazine]
IC50 [1]: 0.01 to 0.99 µM | IC50 [2]: 0.01 to 0.99 µM

SMILES: CC(C)c1nn(-c2ccccc2)cc1C1c2nnnn2CCN1Cc1ccc2c(c1)OCO2 (stereo not shown) [Compound 58, 7-Benzo[1,3]dioxol-5-ylmethyl-8-(3-isopropyl-1-phenyl-1H-pyrazol-4-yl)-5,6,7,8-tetrahydro-tetrazolo[1,5-a]pyrazine]
IC50 [1]: 0.99 to 9.9 µM | IC50 [2]: 9.9 to 40 µM

SMILES: CC(C)c1nn(-c2ccccc2)cc1C1c2nnnn2CCN1Cc1cccs1 (racemic) [Compound 61, 8-(3-Isopropyl-1-phenyl-1H-pyrazol-4-yl)-7-thiophen-2-ylmethyl-5,6,7,8-tetrahydro-tetrazolo[1,5-a]pyrazine]
IC50 [1]: 0.01 to 0.99 µM | IC50 [2]: 0.01 to 0.99 µM

IC50 [1]: 9.9 to 40 µM | IC50 [2]: 0.01 to 0.99 µM
SMILES: Fc1cc(F)cc(C2c3nnnn3CCN2Cc2cccc(Br)c2)c1 (stereo not shown) [Compound 107, 7-(3-Bromo-benzyl)-8-(3,5-difluoro-phenyl)-5,6,7,8-tetrahydro-tetrazolo[1,5-a]pyrazine]

SMILES: COc1ccc(C2c3nnnn3CCN2Cc2ccc(F)cc2)cc1 (stereo not shown) [Compound 146, 7-(4-Fluoro-benzyl)-8-(4-methoxy-phenyl)-5,6,7,8-tetrahydro-tetrazolo[1,5-a]pyrazine]
IC50 [1]: 0.99 to 9.9 µM | IC50 [2]: 9.9 to 40 µM

SMILES: Fc1ccc(CN2CCn3nnnc3C2c2ccc3c(c2)OCCO3)cc1 (stereo not shown) [Compound 133, 8-(2,3-Dihydro-benzo[1,4]dioxin-6-yl)-7-(4-fluoro-benzyl)-5,6,7,8-tetrahydro-tetrazolo[1,5-a]pyrazine]
IC50 [1]: 9.9 to 40 µM | IC50 [2]: 0.99 to 9.9 µM

SMILES: Cc1cccc(CN2CCn3nnnc3C2c2ccc3c(c2)OCCO3)c1 (stereo not shown) [Compound 95, 8-(2,3-Dihydro-benzo[1,4]dioxin-6-yl)-7-(3-methyl-benzyl)-5,6,7,8-tetrahydro-tetrazolo[1,5-a]pyrazine]
IC50 [1]: 0.99 to 9.9 µM | IC50 [2]: 0.01 to 0.99 µM

SMILES: Brc1cccc(CN2CCn3nnnc3C2C2CCCCC2)c1 (stereo not shown) [Compound 65, 7-(3-Bromo-benzyl)-8-cyclohexyl-5,6,7,8-tetrahydro-tetrazolo[1,5-a]pyrazine]
IC50 [1]: 9.9 to 40 µM | IC50 [2]: 9.9 to 40 µM

SMILES: Fc1ccc(C2c3nnnn3CCN2Cc2ccccc2)cc1 (stereo not shown) [Compound 102, 7-Benzyl-8-(4-fluoro-phenyl)-5,6,7,8-tetrahydro-tetrazolo[1,5-a]pyrazine]
IC50 [1]: 9.9 to 40 µM | IC50 [2]: 0.01 to 0.99 µM

SMILES: CC(C)Oc1ccc(C2c3nnnn3CCN2Cc2ccc3c(c2)OCO3)cc1 (stereo not shown) [Compound 131, 7-Benzo[1,3]dioxol-5-ylmethyl-8-(4-isopropoxy-phenyl)-5,6,7,8-tetrahydro-tetrazolo[1,5-a]pyrazine]
IC50 [1]: 9.9 to 40 µM | IC50 [2]: 0.99 to 9.9 µM

SMILES: Fc1ccc(C2c3nnnn3CCN2Cc2cccc(Br)c2)cc1 (racemic) [Compound 96, 7-(3-Bromo-benzyl)-8-(4-fluoro-phenyl)-5,6,7,8-tetrahydro-tetrazolo[1,5-a]pyrazine]
IC50 [1]: 0.99 to 9.9 µM | IC50 [2]: 0.01 to 0.99 µM

SMILES: Cc1c(CN2CCn3nnnc3C2c2cn(-c3ccccc3)nc2C(C)C)cnn1C (stereo not shown) [Compound 156, 7-(1,5-Dimethyl-1H-pyrazol-4-ylmethyl)-8-(3-isopropyl-1-phenyl-1H-pyrazol-4-yl)-5,6,7,8-tetrahydro-tetrazolo[1,5-a]pyrazine]
IC50 [1]: 9.9 to 40 µM | IC50 [2]: 9.9 to 40 µM

Source: patent US9688684B2, “Substituted tetrazolo[1,5-a]pyrazines as ROR-gamma inhibitors” (Merck Patent GmbH, priority 2013, dated 2017)
